Drawing on PubChem BioAssay (NCI), this text covers TGI for 15 molecules.

Structures are written as SMILES.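 Protocol summary: plate cells (96-well), add compound at 5 concentrations, incubate 48 h, interpolate endpoints linearly. The concentration for full growth arrest is given as TGI.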

What all share (test): growth of human tumour cells (NCI), 48 h
The subject of experiment [1] is BT-549 breast.
For experiment [2], the system named is SK-OV-3 ovarian.
In experiment [3] the test system is OVCAR-5 ovarian.
Experiment [4] deals with OVCAR-4 ovarian.
The subject of experiment [5] is SN12C renal.
Experiment [6] deals with UACC-257 melanoma.
Experiment [7] has as its system K-562 leukemia.
Experiment [8] has as its system RXF 393 renal.
In experiment [9] the test system is SK-MEL-2 melanoma.
Experiment [10] relates to UACC-62 melanoma.
The test system of experiment [11] is SF-295 CNS.
The subject of experiment [12] is KM12 colon.
The subject of experiment [13] is 786-0 renal.
The test system of experiment [14] is LOX IMVI melanoma.
Experiment [15] concerns NCI/ADR-RES ovarian.
Experiment [16] concerns PC-3 prostate.
Experiment [17] deals with DU-145 prostate.
Experiment [18] deals with UO-31 renal.
Experiment [19] relates to HOP-62 NSCLC.
The subject of experiment [20] is M14 melanoma.

With `COc1cccc(NC(=O)CC(=O)NN)c1`, the TGI in experiment [1], in experiment [2], in [3], in [4], in experiment [5] and in [6] was more than 100 µM in each case. Moreover, the TGI in [7], in [8], in [9], in experiment [10], in experiment [11] and in [12] was more than 100 µM in each case. The TGI in experiment [13], in experiment [14], in experiment [15], in experiment [16], in experiment [17] and in experiment [18] was more than 100 µM in each case. Further, the TGI in experiment [19] was more than 100 µM.
Turning to `O/N=C\c1c2c(cc3c1CCC3)CCC2`, the TGI in experiment [1], in experiment [2], in experiment [3], in [4], in [5] and in experiment [6] was more than 100 µM in each case. The TGI in [7], in experiment [9], in [10], in experiment [11], in experiment [12] and in [13] was more than 100 µM in each case. For the same molecule, the TGI in [14], in [15], in experiment [16], in experiment [17], in experiment [20] and in experiment [18] was more than 100 µM each time. This molecule also gave a TGI in experiment [19] of more than 100 µM.
For the molecule `CC(C)(C)OC(=O)Cn1ncn(NC(=O)Cc2ccccc2)c1=S`, the TGI in [1], in [2], in [3], in [4], in experiment [5] and in experiment [6] was more than 10 µM each time. In addition, the TGI in [7], in experiment [10], in [11], in [12], in [13] and in [14] was more than 10 µM each time. Moreover, the TGI in [15], in [16], in experiment [17], in [20], in experiment [18] and in experiment [19] was more than 10 µM throughout.
On to `O=C(C[N+]12CN3CN(CN(C3)C1)C2)c1ccc(-c2ccccc2)cc1`, for which the TGI in experiment [1] is 71.7 µM; in experiment [3] it was 37.6 µM; in [4], more than 100 µM; in experiment [5], 45.1 µM; in [6], 29.8 µM; in experiment [7], 33.7 µM. The TGI came out at 37.7 µM in experiment [8]; 35.2 µM in experiment [9]; 29.9 µM in [10]; 43.6 µM in experiment [11]; 90.3 µM in [12]; 45.9 µM in experiment [13]. For the same molecule, the TGI in [14] came to 30.6 µM; in [15] it was 89.4 µM; in experiment [16], 34 µM; in experiment [17], 40 µM; in [20], 49.5 µM; in experiment [18], 61.8 µM. The molecule also had a TGI in [19] of 55.4 µM.
As to `C=C1OC2OC(C)C(NC(=O)OCC(Cl)(Cl)Cl)C(OC(C)=O)C2O1` (centres undefined), the TGI in experiment [1], in experiment [2], in experiment [3], in experiment [4], in [5] and in experiment [6] was more than 100 µM each time. Also, the TGI in experiment [7], in [8], in experiment [10], in experiment [11], in [12] and in [13] was more than 100 µM in each case. Besides, the TGI in experiment [14], in experiment [15], in experiment [16], in experiment [17], in experiment [20] and in experiment [18] was more than 100 µM in each case. This molecule gave a TGI in experiment [19] of more than 100 µM.
As to `CN(C)C(=O)C(F)(F)C(c1ccccc1Br)C1C(=O)N(C)C(=O)N(C)C1=O` (centres undefined), the TGI in experiment [1], in experiment [2], in [3], in experiment [4], in experiment [6] and in experiment [7] was more than 100 µM each time. For the same molecule, the TGI in experiment [8], in [9], in experiment [10], in experiment [11], in experiment [12] and in [13] was more than 100 µM each time. For the same molecule, the TGI in [14], in experiment [15], in [16], in experiment [17], in experiment [20] and in experiment [18] was more than 100 µM throughout. For the same molecule, the TGI in experiment [19] was more than 100 µM.
Take `CC(C)c1cc(=O)[nH]c2cc(N)ccc12`: the TGI in experiment [1], in experiment [3], in experiment [4], in [5], in [6] and in [7] was more than 100 µM in each case. The TGI in experiment [8], in [9], in experiment [10], in [11], in [12] and in [13] was more than 100 µM each time. Moreover, the TGI in experiment [14], in experiment [15], in [16], in experiment [17], in experiment [20] and in experiment [18] was more than 100 µM throughout. The TGI in experiment [19] was more than 100 µM.
On to `NC(Cc1ccccc1)C(=O)OCN1C(=O)C2C3C=CC(C2C1=O)C1C(=O)N(COC(=O)C(N)Cc2ccccc2)C(=O)C31` (centres undefined), for which the TGI in experiment [1] was more than 100 µM; in experiment [3], more than 100 µM; in experiment [5] it was more than 100 µM; in experiment [6], more than 100 µM; in experiment [7], 74.6 µM; in experiment [8] it was more than 100 µM. The TGI was 52 µM in experiment [9]; more than 100 µM in experiment [10]; more than 100 µM in experiment [11]; more than 100 µM in [13]; 42.2 µM in [14]; more than 100 µM in experiment [15]. The TGI in experiment [16], in [17], in experiment [20], in [18] and in experiment [19] was more than 100 µM each time.
`CNC(=O)[C@H](Cc1ccccc1)NC(=O)N(CCC#N)CCN(C(=O)N[C@@H](Cc1ccccc1)C(=O)OC)c1ccccc1`: the TGI in experiment [1], in experiment [2], in [3], in experiment [4], in [6] and in experiment [7] was more than 100 µM in each case. The TGI in experiment [8], in experiment [9], in experiment [10], in experiment [11], in experiment [12] and in experiment [13] was more than 100 µM in each case. The TGI in experiment [14], in experiment [15], in [16], in experiment [17], in [20] and in experiment [18] was more than 100 µM in each case. The molecule also had a TGI in experiment [19] of more than 100 µM.
Take `CNC(=O)OCc1cnc([N+](=O)[O-])n1C`: the TGI in experiment [1], in experiment [3], in [4], in [5], in [6] and in experiment [7] was more than 100 µM throughout. Also, the TGI in experiment [8], in [9], in experiment [11], in experiment [12], in experiment [13] and in experiment [14] was more than 100 µM throughout. Besides, the TGI in [15], in [16], in experiment [17], in experiment [18] and in [19] was more than 100 µM each time.
Take `CN(C(=O)Cc1ccccc1)n1cn[n+](CC(=O)OC(C)(C)C)c1`: the TGI in experiment [1], in [2], in experiment [3], in [4], in [5] and in experiment [6] was more than 10 µM each time. Also, the TGI in experiment [7], in experiment [10], in experiment [11], in [12], in experiment [13] and in experiment [14] was more than 10 µM in each case. Further, the TGI in experiment [15], in [16], in [17], in [20], in [18] and in [19] was more than 10 µM in each case.
Consider `c1ccc(C(Oc2noc3ccccc23)c2ccccc2)cc1`, for which the TGI in experiment [1] was 96.4 µM; in experiment [2], more than 100 µM; in experiment [3] it was more than 100 µM; in experiment [4], more than 100 µM; in experiment [5], more than 100 µM; in [6], 99.6 µM. Besides, the TGI in [7] is more than 100 µM; in experiment [8], 35.9 µM; in [10], more than 100 µM; in experiment [11], more than 100 µM; in experiment [12], more than 100 µM; in experiment [13], more than 100 µM. The TGI in experiment [14] was more than 100 µM; in experiment [15] it was more than 100 µM; in experiment [16] it was more than 100 µM; in experiment [17], 78.6 µM; in [20], 63.5 µM; in experiment [18], more than 100 µM. Further, the TGI in experiment [19] is more than 100 µM.
On to `ClC1=NSSC1(Cl)Cl`, for which the TGI in experiment [1] is more than 100 µM; in experiment [3], 85 µM; in [4], more than 100 µM; in experiment [5], 41.7 µM; in experiment [6], more than 100 µM; in [7] it was 24 µM. The TGI in [8] was more than 100 µM; in experiment [9], more than 100 µM; in experiment [10], more than 100 µM; in experiment [11], more than 100 µM; in [12], more than 100 µM; in experiment [13], 59.3 µM. The TGI in [14] was more than 100 µM; in experiment [15], more than 100 µM; in experiment [16], more than 100 µM; in experiment [17], more than 100 µM; in experiment [20], 40.1 µM; in [18], 78 µM. The molecule also gave a TGI in experiment [19] of more than 100 µM.
With `CN(C)C(=O)C(F)(F)C(c1ccccc1)C1C(=O)N(C)C(=O)N(C)C1=O` (centres undefined), the TGI in [1], in experiment [2], in experiment [3], in experiment [4], in experiment [6] and in experiment [7] was more than 100 µM in each case. The TGI in [8], in experiment [9], in experiment [10], in experiment [11], in experiment [12] and in [13] was more than 100 µM throughout. In addition, the TGI in experiment [14], in experiment [15], in [16], in [17], in [20] and in experiment [18] was more than 100 µM each time. The molecule also registered a TGI in [19] of more than 100 µM.
On to `Cc1ccc(C(=O)N/N=C(\N=Nc2ccc([N+](=O)[O-])cc2)c2ccc(N(CCC#N)CCC#N)cc2C)cc1`, for which the TGI in [1], in experiment [2], in [3], in experiment [4], in experiment [5] and in experiment [6] was more than 100 µM in each case. Further, the TGI was more than 100 µM in experiment [7]; 50.9 µM in experiment [8]; more than 100 µM in experiment [9]; more than 100 µM in experiment [11]; more than 100 µM in [12]; more than 100 µM in experiment [13]. Further, the TGI in experiment [14], in experiment [15], in experiment [16], in experiment [17], in experiment [20] and in experiment [18] was more than 100 µM in each case. The TGI in [19] is more than 100 µM.
